# From publication PMC8456958, “Selective Bacterial Targeting and Infection‐Triggered Release of Antibiotic Colistin Conjugates” (Angewandte Chemie (International Ed. in English), 2021)
# Positions of bridges follow the written chain, without caps; N, C: chain ends. Non-standard residues stand in square brackets, D forms with d. Residues, ends and D or L forms follow the SMILES beside them. *: point of attachment. Heptanoyl(6-Me) = CC(C)CCCCC(=O)*; Dab = NCC[C@H](N)C(=O)O
# Tested on: E. coli K12
# Type: cell-based, Escherichia coli
# Procedure: Determination of antibacterial activities by broth dilution assay
# Bacterial suspensions at 5-6 x 10^5 CFU (1:1000 dilution of a bacterial suspension of OD600 = 1) in T-medium were incubated in volumes of 200 µl in sterile clear 96-well microtiter plates at 37 °C in a wet chamber with serial dilution of peptide-colistin constructs and controls (32 – 0.016 µM) for 18 h.
# External neutrophil elastase was added at 10 mU/ml or 100 mU/ml to each well at the start of incubation, where indicated. After the incubation, the plate was placed for 5 min on a MTP shaker to generate homogenous bacterial suspensions. OD600 was then determined in a microplate reader. The wells with the lowest compound concentration without growth defined the MICs. […]
# Figure S7. Heat plot of the growth of E. coli K12 and E. coli DSM 1116 in presence of 6. Rows A-D: E. coli K12; Rows E-H: E. coli DSM 1116; A + E colistin; B + F peptide-colistin construct 6; C + G peptide-colistin construct 6 + 10 mU/ml elastase; D + H bacteria without compounds. The numbers below the heatplot depict the concentration of colistin and peptides in µM. Conditions: T medium, incubation 20 h at 37 °C in wet chamber; inoculum: cultures at OD = 1.0 diluted 1:1000 (5-6 x 10^5 CFU/ml). […]
# Figure S10. Heat plot of the growth of E. coli in presence of 48 and 49. Row A: E. coli K12 without added compounds; B colistin B; C peptide-colistin construct 49; D peptide-colistin construct 49 + 10 mU/ml elastase; E ElsaSub-colistin; F 48 with 10 mU elastase; G 4; H 4 with […]. The numbers depict the concentration of colistin and peptides in µM. Conditions: T medium, incubation 17.5 h at 37 °C in wet chamber; inoculum 5-6 x 10^5 CFU/ml. […]
# with elastase 10 mU/ml pos-1-isomer (22) […]
# with elastase 10 mU/ml pos-3-isomer (28) […]
# with elastase 10 mU/ml pos-5-isomer (34) […]
# with elastase 10 mU/ml pos-8-isomer (40) […]
# with elastase 10 mU/ml pos-9-isomer (46)
# Figure S11. Heat plot of the growth of E. coli in presence of positional isomers obtained by total chemical synthesis. Conditions: T medium, incubation for 20 h at 37 °C in wet chamber; inoculum 5-6 x 10^5 CFU/ml. Addition of neutrophil elastase at 10 and 100 mU/ml, as indicated. Concentrations of isomers stated below the heat plot in µg/ml. […]
# [1] = Table 2, E. coli K12, conservative MIC readouts of at least three independent biological experiments
structure (smiles),measurement,setting,value
"CC(C)CCCCC(=O)N[C@@H](CCN)C(=O)N[C@H](C(=O)N[C@@H](CCN)C(=O)N[C@H]1CCNC(=O)[C@H]([C@@H](C)O)NC(=O)[C@H](CCN)NC(=O)[C@H](CCN)NC(=O)[C@H](CC(C)C)NC(=O)[C@@H](CC(C)C)NC(=O)[C@H](CCN)NC1=O)[C@@H](C)O [Compound 1, colistin B, reference compound] ({Heptanoyl(6-Me)}-[Dab]T[Dab][Dab][Dab][dL]L[Dab][Dab]T; lactam 4-C)","MIC, E. coli K12","Table 1, without elastase, broth dilution, T-medium, 5-6 x 10^5 CFU, 37 °C, OD600 readout",0.063 µM
same,MIC with 10 mU mL^−1 Elastase,[1],0.031 µM
same,MIC with 100 mU mL^−1 Elastase,[1],0.031 µM
same,MIC without Elastase,[1],0.031 µM
